Experiment: mn = molality of the nth substance listed, in mol/kg
Details: Liquid, isochoric method

C [methane] + CCCCCC
Details | mass density [kg/m3]
273.1 K, 2850 kPa, m1 = 2.157 | 655
273.1 K, 3620 kPa, m1 = 2.812 | 648
273.1 K, 4700 kPa, m1 = 3.805 | 638
273.1 K, 5670 kPa, m1 = 4.686 | 628
273.1 K, 6920 kPa, m1 = 6.031 | 616
273.1 K, 7900 kPa, m1 = 7.195 | 604
273.1 K, 9190 kPa, m1 = 8.724 | 596
283.15 K, 2500 kPa, m1 = 1.717 | 650
283.15 K, 3570 kPa, m1 = 2.568 | 640
283.15 K, 4740 kPa, m1 = 3.533 | 632
283.15 K, 5840 kPa, m1 = 4.499 | 620
283.15 K, 7010 kPa, m1 = 5.615 | 610
283.15 K, 8560 kPa, m1 = 7.345 | 594
293.15 K, 2360 kPa, m1 = 1.513 | 643
293.15 K, 3340 kPa, m1 = 2.229 | 635
293.15 K, 4410 kPa, m1 = 3.042 | 627
293.15 K, 5620 kPa, m1 = 4.008 | 615
293.15 K, 6860 kPa, m1 = 5.098 | 604
293.15 K, 8400 kPa, m1 = 6.638 | 590

— the NIST ThermoML archive (doi:10.1016/j.jct.2016.03.038)
